# Data published in patent US8431557B2, “Treatment of menopause-associated symptoms” (Besins Healthcare Luxembourg SARL, priority 2006, dated 2013).
# Where two headings read alike, the source gives them in different places.
# What was measured:
# menopausal women [1] = test: Placebo-controlled study: severity of moderate to severe hot flushes; format: in vivo, human (women); design: key to Severity of Moderate to Severe Hot Flushes, Mean Change from Baseline / Severity of Moderate to Severe Hot Flushes, Mean: 0 none, 1 mild, 2 moderate, 3 severe hot flush intensity; settings: 0.375 mg dose
# Protocol: (§1) This study was a multi-centred, double-blind, placebo-controlled, parallel group comparison. A total of 351 subjects were enrolled at 78 sites in the United States.
# (§2) A two-week, medication free, Pre-Treatment Phase was used to determine subject vasomotor symptoms. Efficacy assessments included the number and intensity of hot flushes per day, and severity of vulvar and vaginal atrophy symptoms.
# (§3) The three treatment groups comprised the following dosages: • A 0.375 mg dose (1.25 g of gel @ 0.03%) applied to one arm and 0.9 g of placebo gel applied on the other arm once daily for 12 weeks; • A 0.27 mg dose (0.9 g of gel @ 0.03%) applied to one arm and 1.25 g of placebo gel applied on the other arm once daily for 12 weeks; and • 0.9 g of placebo gel applied to one arm and 1.25 g of placebo gel applied on the other arm once daily for 12 weeks.
# (§4) The Treatment Phase was 12 weeks. A pre-treatment period of 2 weeks was used to initially evaluate each subject's vasomotor symptoms.
# (§5) All data were analyzed using the approach of Observed Cases (OC).
# (§6) For all continuous primary and secondary efficacy parameters, descriptive statistics tables and 2-way ANCOVA with fixed factors treatment and centre, and baseline value as covariate were provided. The interaction of treatment and centre was investigated using 2-way ANCOVA with fixed factors treatment, centre, and treatment-by-centre interaction with baseline value as covariate. To control the Type-I error rate, a step-down procedure using contrasts was performed to compare each treatment group to the placebo group. First, the group with the 0.375 mg dose was compared against placebo at the α=0.05 level (2-sided). If the null hypothesis was rejected, the group with the 0.27 mg dose was compared to placebo at the α=0.05 level (2-sided). Graphs were used to characterize the dose response. If the assumptions of the model were not met, then van Elteren's test with centre as the stratification variable was used in the step-down procedure. For categorical data, Fisher's exact test was used to compare treatment groups.
# (§7) The study assessed the following variables: • Mean change in frequency of moderate to severe vasomotor symptoms from baseline to Week 4; • Mean change in frequency of moderate to severe vasomotor symptoms from baseline to Week 12; • Mean change in severity of moderate to severe vasomotor symptoms from baseline to Week 4; • Mean change in severity of moderate to severe vasomotor symptoms from baseline to Week 12; • Mean change in frequency of moderate-to-severe hot flushes at each week; • Mean change in severity of moderate-to-severe hot flushes at each week; • Mean change from baseline to Week 12 in the moderate to severe symptom of vulvar and vaginal atrophy that has been identified by the subject as being the most bothersome to her (vaginal pain, dryness, irritation/itching, bleeding, dysuria);
# Severity of moderate to severe vasomotor symptoms was defined as (2*number of moderate hot flushes+3*number of severe hot flushes)/total number of moderate and severe hot flushes.
# As with frequency, if less than 10 days of data were available for the baseline period, the baseline severity was considered missing.
# On a daily basis, the subject recorded the number of hot flushes and rated the intensity of each based on a four-point scale as follows: • 0 (none) • 1 (mild) Sensation of heat without perspiration • 2 (moderate) Sensation of heat with perspiration, but the subject was able to continue with their activity • 3 (severe) Sensation of heat with sweating, sufficiently severe to result in discontinuation of activity Assessment of Vulvar and Vaginal Atrophy Symptom Severity
# menopausal women [2] = test: Placebo-controlled study: moderate to severe symptom of vulvar and vaginal atrophy; format: in vivo, human (women)
# Protocol: as §1, §2, §3, §4, §5, §6, §7
# The severity of symptoms of vulvar and vaginal atrophy (vaginal pain associated with sexual activity, dryness, irritation/itching, bleeding associated with sexual activity, or dysuria) that was identified by the subject as moderate to severe and most bothersome was assessed at Week 1, Week 12, or Early Termination using the following rating scale: […]
# [3] = Plasma concentrations of estradiol and unconjugated estrone (HPLC with MS/MS); format: in vivo, human (women); settings: for Geometric Mean Concentration of E2 (plasma): Baseline; for concentration at 4 weeks / concentration at 8 weeks / concentration at 12 weeks: female, human, plasma, topical, read-out: Geometric Mean Concentration of E2 (plasma)
# Protocol: A single 10 mL sample of whole blood was collected at baseline, Weeks 4, 8, and 12. To eliminate the possibility of sample contamination, only the specimens obtained from the arm not used for estradiol application were reported.
# [4] = cited from earlier work
# [5] = 0.27 mg dose (N = 115), Baseline
# [6] = 0.27 mg dose (N = 115), Endpoint
# [7] = 0.375 mg dose (N = 114), Baseline
# [8] = 0.375 mg dose (N = 114), Endpoint
compound,measurement,setting,value
"C[C@]12CC[C@@H]3c4ccc(O)cc4CC[C@H]3[C@@H]1CC[C@@H]2O [estradiol, 17-beta estradiol]","Severity of Moderate to Severe Hot Flushes, Mean Change from Baseline",menopausal women [1]; Week 2,−0.10
same,"Severity of Moderate to Severe Hot Flushes, Mean Change from Baseline",menopausal women [1]; Week 3,−0.19
same,"Severity of Moderate to Severe Hot Flushes, Mean Change from Baseline",menopausal women [1]; Week 4,−0.31
same,"Severity of Moderate to Severe Hot Flushes, Mean Change from Baseline",menopausal women [1]; Week 5,−0.35
same,"Severity of Moderate to Severe Hot Flushes, Mean Change from Baseline",menopausal women [1]; Week 6,−0.49
same,"Severity of Moderate to Severe Hot Flushes, Mean Change from Baseline",menopausal women [1]; Week 7,−0.67
same,"Severity of Moderate to Severe Hot Flushes, Mean Change from Baseline",menopausal women [1]; Week 8,−0.59
same,"Severity of Moderate to Severe Hot Flushes, Mean Change from Baseline",menopausal women [1]; Week 9,−0.77
same,"Severity of Moderate to Severe Hot Flushes, Mean Change from Baseline",menopausal women [1]; Week 10,−0.76
same,"Severity of Moderate to Severe Hot Flushes, Mean Change from Baseline",menopausal women [1]; Week 11,−0.89
same,"Severity of Moderate to Severe Hot Flushes, Mean Change from Baseline",menopausal women [1]; Week 12,−0.90
same,Improvement in moderate to severe symptoms of vulvar and vaginal atrophy,menopausal women [2]; 0.27 mg dose,statistically significant improvement
same,"Symptom of Vulvar and Vaginal Atrophy, number of subjects rated Moderate",menopausal women [2]; [5],21
same,"Symptom of Vulvar and Vaginal Atrophy, number of subjects rated Severe",menopausal women [2]; [5],16
same,"Symptom of Vulvar and Vaginal Atrophy, percent of subjects rated Severe",menopausal women [2]; [5],(13.9%)
same,"Symptom of Vulvar and Vaginal Atrophy, number of subjects rated Mild",menopausal women [2]; [6],15
same,"Symptom of Vulvar and Vaginal Atrophy, number of subjects rated Moderate",menopausal women [2]; [6],10
same,"Symptom of Vulvar and Vaginal Atrophy, number of subjects rated None",menopausal women [2]; [6],6
same,"Symptom of Vulvar and Vaginal Atrophy, number of subjects rated Severe",menopausal women [2]; [6],5
same,"Symptom of Vulvar and Vaginal Atrophy, percent of subjects rated Mild",menopausal women [2]; [6],(13.0%)
same,"Symptom of Vulvar and Vaginal Atrophy, percent of subjects rated Moderate",menopausal women [2]; [6],(8.7%)
same,"Symptom of Vulvar and Vaginal Atrophy, percent of subjects rated None",menopausal women [2]; [6],(5.2%)
same,"Symptom of Vulvar and Vaginal Atrophy, percent of subjects rated Severe",menopausal women [2]; [6],(4.3%)
same,Improvement in moderate to severe symptoms of vulvar and vaginal atrophy,menopausal women [2]; 0.375 mg dose,statistically significant improvement
same,"Symptom of Vulvar and Vaginal Atrophy, number of subjects rated Moderate",menopausal women [2]; [7],26
same,"Symptom of Vulvar and Vaginal Atrophy, number of subjects rated Severe",menopausal women [2]; [7],18
same,"Symptom of Vulvar and Vaginal Atrophy, percent of subjects rated Moderate",menopausal women [2]; [7],(22.8%)
same,"Symptom of Vulvar and Vaginal Atrophy, percent of subjects rated Severe",menopausal women [2]; [7],(15.8%)
same,"Symptom of Vulvar and Vaginal Atrophy, number of subjects rated Mild",menopausal women [2]; [8],17
same,"Symptom of Vulvar and Vaginal Atrophy, number of subjects rated Moderate",menopausal women [2]; [8],9
same,"Symptom of Vulvar and Vaginal Atrophy, number of subjects rated None",menopausal women [2]; [8],10
same,"Symptom of Vulvar and Vaginal Atrophy, number of subjects rated Severe",menopausal women [2]; [8],6
same,"Symptom of Vulvar and Vaginal Atrophy, percent of subjects rated Mild",menopausal women [2]; [8],(14.9%)
same,"Symptom of Vulvar and Vaginal Atrophy, percent of subjects rated Moderate",menopausal women [2]; [8],(7.9%)
same,"Symptom of Vulvar and Vaginal Atrophy, percent of subjects rated None",menopausal women [2]; [8],(8.8%)
same,"Symptom of Vulvar and Vaginal Atrophy, percent of subjects rated Severe",menopausal women [2]; [8],(5.3%)
same,Geometric Mean Concentration of E2 (plasma),[3]; 0.270 mg estradiol dose,4.2 pg/mL
same,Geometric Mean Concentration of E2 (plasma),[3]; 0.375 mg estradiol dose,3.7 pg/mL
same,concentration at 4 weeks,[3]; 0.27 mg,0.0142 ng/mL
same,concentration at 8 weeks,[3]; 0.27 mg,0.0156 ng/mL
same,concentration at 12 weeks,[3]; 0.27 mg,0.014 ng/mL
same,concentration at 4 weeks,[3]; 0.375 mg,0.0183 ng/mL
same,concentration at 8 weeks,[3]; 0.375 mg,0.0158 ng/mL
same,concentration at 12 weeks,[3]; 0.375 mg,0.0214 ng/mL
same,serum estradiol level,[4]; daily topical 0.75 mg dose of estradiol (1.25 g of hydro-alcoholic gel per day),elevation in the serum estradiol level
same,serum estradiol level,[4]; lower estradiol dose than 0.75 mg,did not achieve similar serum levels
